Data as given in patent publication US11028090B2 (Dong Wha Pharm. Co., Ltd., priority 2017, dated 2021).
Counter-ions that a name gives are not always drawn. Like-named read-outs stand apart in the source and are kept apart here.

Biological target: BRD4 (BD1+BD2) bromodomain (Homo sapiens (Human), UniProt O60885)
Test: BRD4 binding inhibition (AlphaScreen, GST-BRD4 vs tetraacetylated histone H4 peptide)
Procedure, shortened: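 AlphaScreen read after 30 min dark incubation at room temperature with glutathione acceptor/streptavidin donor beads (10 μg/ml each). The beads were added to compound plus 100 nM biotin-H4 (K5,8,12,16-acetyl) peptide and 100 nM GST-BRD4 BD1+BD2 in pH 7.4 HEPES/Tween/BSA/DTT buffer.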

[1] = GST-BRD4 (BD1+BD2) / biotinylated acetyl-histone H4 (Lys5,8,12,16) peptide, read-out: IC50, BRD4 binding inhibition
[2] = GST-BRD4 (BD1+BD2) vs biotinylated acetyl-histone H4 peptide, AlphaScreen, read-out: BRD4 IC50

`CCOC(=O)CC(=O)NCCCCNc1nc2cc(OCCOC)ccc2n2c(C)nnc12` [Example 394, N-{4-[7-(2-methoxy-ethoxy)-1-methyl-[1,2,4]triazolo[4,3-a]quinoxaline-4-ylamino]-butyl}-malonamic acid ethylester] showed an IC50 [1] of at most 0.05 µM and an IC50 [2] of 0.034 µM.

In the case of `COCCOc1ccc2c(c1)nc(NCCCCNC(=O)[C@@H](NC(=O)CC(C)C)C(C)C)c1nnc(C)n12` [Example 401, (S)-N-{4-[7-(2-methoxy-ethoxy)-1-methyl-[1,2,4]triazolo[4,3-a]quinoxaline-4-ylamino]-butyl}-3-methyl-2-(3-methyl-butyrylamino)-butyramide], the IC50 [1] is reported as at most 0.05 µM and the IC50 [2] is reported as 0.012 µM.

With `COCCOc1ccc2c(c1)nc(NCCCCNC(=O)[C@@H](NC(=O)C(C)(C)C)C(C)C)c1nnc(C)n12` [Example 402, (S)-2-(2,2-dimethyl-propionylamino)-N-{4-[7-(2-methoxy-ethoxy)-1-methyl-[1,2,4]triazolo[4,3-a]quinoxaline-4-ylamino]-butyl}-3-methyl-butyramide] the IC50 [1] was at most 0.05 µM and the IC50 [2] was 0.018 µM.

`COCCOc1ccc2c(c1)nc(NCCCCNC(=O)[C@@H](NC(=O)[C@@H](O)C(C)C)C(C)C)c1nnc(C)n12` [Example 404, 2-(S,S)-hydroxy-N-(1-{4-[7-(2-methoxy-ethoxy)-1-methyl-[1,2,4]triazolo[4,3-a]quinoxaline-4-ylamino]-butylcarbamoyl}-2-methyl-propyl)-3-methyl-butyramide] gave an IC50 [1] of at most 0.05 µM and an IC50 [2] of 0.015 µM.

With `COCCOc1ccc2c(c1)nc(NCCCCNC(=O)[C@@H](NS(C)(=O)=O)C(C)C)c1nnc(C)n12` [Example 405, 2-(S)-methanesulfonylamino-{4-[7-(2-methoxy-ethoxy)-1-methyl-[1,2,4]triazolo[4,3-a]quinoxaline-4-ylamino]-butyl}-3-methyl-butyramide] the IC50 [1] was at most 0.05 µM.

`COCCOc1ccc2c(c1)nc(NCCCCNC(=O)c1ccccn1)c1nnc(C)n12` [Example 416, pyridine-2-carboxylic acid-{4-[7-(2-methoxy-ethoxy)-1-methyl-[1,2,4]triazolo[4,3-a]quinoxaline-4-ylamino]-butyl}-amide] showed an IC50 [2] of 0.052 µM.

For `COCCOc1ccc2c(c1)nc(NCCCCNC(=O)c1cccnc1)c1nnc(C)n12` [Example 417, N-{4-[7-(2-methoxy-ethoxy)-1-methyl-[1,2,4]triazolo[4,3-a]quinoxaline-4-ylamino]-butyl}-nicotinamide], the IC50 [2] was 0.06 µM.

`COCCOc1ccc2c(c1)nc(NCCCCNC(=O)c1ccncc1)c1nnc(C)n12` [Example 418, N-{4-[7-(2-methoxy-ethoxy)-1-methyl-[1,2,4]triazolo[4,3-a]quinoxaline-4-ylamino]-butyl}-isonicotinamide] showed an IC50 [1] of at most 0.05 µM and an IC50 [2] of 0.049 µM.

Molecule `CCNC(=O)NCCCCNc1nc2cc(OCCOC)ccc2n2c(C)nnc12` [Example 423, 1-ethyl-3-{4-[7-(2-methoxy-ethoxy)-1-methyl-[1,2,4]triazolo[4,3-a]quinoxaline-4-ylamino]-butyl}-urea] has an IC50 [1] of at most 0.05 µM and an IC50 [2] of 0.027 µM.

Work on `COCCOc1ccc2c(c1)nc(NCCCCNC(=O)NC(C)(C)C)c1nnc(C)n12` [Example 424, 1-tert-butyl-3-{4-[7-(2-methoxy-ethoxy)-1-methyl-[1,2,4]triazolo[4,3-a]quinoxaline-4-ylamino]-butyl}-urea] yielded an IC50 [1] of at most 0.05 µM and an IC50 [2] of 0.025 µM.

`COCCOc1ccc2c(c1)nc(NCCCCNC(=O)N1CCOCC1)c1nnc(C)n12` [Example 425, morpholine-4-carboxylic acid-{4-[7-(2-methoxy-ethoxy)-1-methyl-[1,2,4]triazolo[4,3-a]quinoxaline-4-ylamino]-butyl}-amide] gave an IC50 [1] of at most 0.05 µM and an IC50 [2] of 0.028 µM.

For `COCCOc1ccc2c(c1)nc(NCCCCNC(=O)Nc1ccccc1)c1nnc(C)n12` [Example 427, 3-{4-[7-(2-methoxy-ethoxy)-1-methyl-[1,2,4]triazolo[4,3-a]quinoxaline-4-ylamino]-butyl}-1-phenyl-urea], the IC50 [1] was at most 0.05 µM and the IC50 [2] was 0.017 µM.

With `COCCOc1ccc2c(c1)nc(NCCCCNC(=O)SC(C)C)c1nnc(C)n12` [Example 428, {4-[7-(2-methoxy-ethoxy)-1-methyl-[1,2,4]triazolo[4,3-a]quinoxaline-4-ylamino]-butyl}-thiocarbamic acid-S-isopropylester] the IC50 [1] was at most 0.01 µM and the IC50 [2] was 0.004 µM.

`Cc1nnc2c(NCCCCNC(=O)[C@H](O)C(C)C)nc3cc(OCCN4CCOCC4)ccc3n12` [Example 434, 2-(R)-hydroxy-N-{4-[7-(2-morpholine-4-yl-ethoxy)-1-methyl-[1,2,4]triazolo[4,3-a]quinoxaline-4-ylamino]-butyl}-3-methyl-butyramide] gave an IC50 [1] of at most 0.05 µM and an IC50 [2] of 0.021 µM.

In the case of `Cc1nnc2c(NCCCCNC(=O)OC(C)(C)C)nc3cc(OC(C)C)ccc3n12` [Example 447, [4-(7-isopropoxy-1-methyl-[1,2,4]triazolo[4,3-a]quinoxaline-4-ylamino)-butyl]-carbamic acid-tert-butylester], the IC50 [1] is reported as at most 0.05 µM and the IC50 [2] is reported as 0.021 µM.

With `Cc1nnc2c(NCCCCN)nc3cc(OC(C)C)ccc3n12` [Example 448, N^1-(7-isopropoxy-1-methyl-[1,2,4]triazolo[4,3-a]quinoxaline-4-yl)-butane-1,4-diamine ditrifluoroacetic acid] the IC50 [1] was at most 0.01 µM and the IC50 [2] was 0.005 µM.

`COc1cc(C)c2c(c1)nc(NCCCCNC(=O)OC(C)(C)C)c1nnc(C)n12` [Example 455, [4-(7-methoxy-1,9-dimethyl-[1,2,4]triazolo[4,3-a]quinoxaline-4-ylamino)-butyl]-carbamic acid-tert-butylester] showed an IC50 [1] of at most 0.05 µM and an IC50 [2] of 0.031 µM.

`COc1cc(C)c2c(c1)nc(NCCCCN)c1nnc(C)n12` [Example 456, N^1-(7-methoxy-1,9-dimethyl-[1,2,4]triazolo[4,3-a]quinoxaline-4-yl)-butane-1,4-diamine ditrifluoroacetic acid] was tested, and the IC50 [2] was 0.075 µM.

`COc1cc(C)c2c(c1)nc(NCCCCNC(=O)OC(C)C)c1nnc(C)n12` [Example 457, [4-(7-methoxy-1,9-dimethyl-[1,2,4]triazolo[4,3-a]quinoxaline-4-ylamino)-butyl]-carbamic acid-isopropylester] gave an IC50 [1] of at most 0.05 µM.

`COc1ccc2c(nc(NCCCCNC(=O)OC(C)(C)C)c3nnc(C)n32)c1Cl` [Example 459, [4-(6-chloro-7-methoxy-1-methyl-[1,2,4]triazolo[4,3-a]quinoxaline-4-ylamino)-butyl]-carbamic acid-tert-butylester] gave an IC50 [1] of at most 0.05 µM and an IC50 [2] of 0.03 µM.

With `COc1ccc2c(nc(NCCCCN)c3nnc(C)n32)c1Cl` [Example 460, dihydrochloride] the IC50 [1] was at most 0.05 µM and the IC50 [2] was 0.012 µM.

Work on `COc1cc2nc(NCCCCNC(=O)OCC(C)C)c3nnc(C)n3c2cc1C(F)(F)F` [Example 474, [4-(7-methoxy-1-methyl-8-trifluoromethyl-[1,2,4]triazolo[4,3-a]quinoxaline-4-ylamino)-butyl]-carbamic acid isobutylester] yielded an IC50 [1] of at most 0.05 µM and an IC50 [2] of 0.044 µM.

Molecule `COc1cc2nc(NCCCCNC(=O)C(C)(C)C)c3nnc(C)n3c2cc1C(F)(F)F` [Example 477, N-[4-(7-methoxy-1-methyl-8-trifluoromethyl-[1,2,4]triazolo[4,3-a]quinoxaline-4-ylamino)-butyl]-2,2-dimethyl-propionamide] has an IC50 [1] of at most 0.05 µM and an IC50 [2] of 0.02 µM.

`COc1cc2nc(NCCCCNC(=O)[C@H](O)C(C)C)c3nnc(C)n3c2cc1C(F)(F)F` [Example 478, 2-(R)-hydroxy-N-[4-(7-methoxy-1-methyl-8-trifluoromethyl-[1,2,4]triazolo[4,3-a]quinoxaline-4-ylamino)-butyl]-3-methyl-butyramide] was tested, and the IC50 [1] was at most 0.05 µM and the IC50 [2] was 0.044 µM.

Molecule `COc1cc2nc(NCCCCNC(=O)c3ccccc3Cl)c3nnc(C)n3c2cc1C(F)(F)F` [Example 481, 2-chloro-N-[4-(7-methoxy-1-methyl-8-trifluoromethyl-[1,2,4]triazolo[4,3-a]quinoxaline-4-ylamino)-butyl]-benzamide] has an IC50 [2] of 0.051 µM.

`COc1cc2nc(NCCCCNC(=O)NC3CCCCC3)c3nnc(C)n3c2cc1C(F)(F)F` [Example 482, 1-cyclohexyl-3-[4-(7-methoxy-1-methyl-8-trifluoromethyl-[1,2,4]triazolo[4,3-a]quinoxaline-4-ylamino)-butyl]-urea] gave an IC50 [1] of at most 0.05 µM and an IC50 [2] of 0.02 µM.

`COCCOc1cc2c(cc1OC)nc(NCCCCNC(=O)CC(C)C)c1nnc(C)n12` [Example 485, N-{4-[7-methoxy-8-(2-methoxy-ethoxy)-1-methyl-[1,2,4]triazolo[4,3-a]quinoxaline-4-ylamino]-butyl}-3-methyl-butyramide] showed an IC50 [2] of 0.059 µM.

In the case of `COc1cc2nc(NCCCCNC(=O)CC(C)C)c3nnc(C)n3c2c(OC)c1OC` [Example 488, 3-methyl-N-[4-(7,8,9-trimethoxy-1-methyl-[1,2,4]triazolo[4,3-a]quinoxaline-4-ylamino)-butyl]-butyramide], the IC50 [1] is reported as at most 0.05 µM and the IC50 [2] is reported as 0.035 µM.

Work on `CCC(C)CC(=O)NCCCCNc1nc2c(OC)cc(OC)c(OC)c2n2c(C)nnc12` (stereo not drawn) [Example 489, 3-methyl-pentanoic acid-[4-(6,8,9-trimethoxy-1-methyl-[1,2,4]triazolo[4,3-a]quinoxaline-4-ylamino)-butyl]-amide] yielded an IC50 [1] of at most 0.05 µM and an IC50 [2] of 0.03 µM.

Molecule `Cc1nnc2c(NCCCCN)nc3cc(N4CCOCC4)ccc3n12` [Example 498, N^1-(1-methyl-7-morpholine-4-yl-[1,2,4]triazolo[4,3-a]quinoxaline-4-yl)-butane-1,4-diamine dihydrochloride] has an IC50 [2] of 0.098 µM.

`Cc1nnc2c(NCCCCNC(=O)[C@@H](NC(=O)[C@H](C)O)C(C)C)nc3cc(N4CCOCC4)ccc3n12` [Example 504, (S)-2-(2-(S)-hydroxy-propionylamino)-3-methyl-N-[4-(1-methyl-7-morpholine-4-yl-[1,2,4]triazolo[4,3-a]quinoxaline-4-ylamino)-butyl]-butyramide hydrochloride] showed an IC50 [1] of at most 0.05 µM and an IC50 [2] of 0.034 µM.
